Laboratory results from the supplement of paper PMC10331698.
± gives the standard deviation of the averaged measurements.

Tests used:
Test in all cases: level (log10 ratio to DMSO vehicle control); higher = higher biomarker level / cell amount than vehicle control
[1] = compound: CO[Si](C)(CCC(F)(F)C(F)(F)C(F)(F)C(F)(F)C(F)(F)C(F)(F)F)OC [Dimethoxymethyl((perfluorohexyl)ethyl)silane] (in DMSO)
Description: (§1)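 BioMAP Diversity Plus panel of 12 human primary cell co-culture systems (3C, 4H, LPS, SAg, BT, BF4T, BE3C, CASM3C, HDF3CGF, KF3CT, MyoF, Mphg). Compounds were added 1 h before stimulation and left for 24 h (MyoF 48 h; BT 72 h for soluble read-outs or 6 d for IgG). Biomarkers were read by ELISA, cytotoxicity by SRB, PBMC viability and proliferation by Alamar Blue. Each well value was divided by the mean of 8 DMSO control wells on the same plate and log10 transformed; duplicate blinded samples were tested at 4 concentrations.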

[2] = compound: C[C@@H]1C[C@H]2[C@@H]3CCC4=CC(=O)C=C[C@]4(C)[C@@]3(F)[C@@H](O)C[C@]2(C)[C@@]1(O)C(=O)COP(=O)(O)O [Dexamethasone sodium phosphate] (in DMSO)
Description: as §1

[3] = compound: NS(=O)(=O)C(F)(F)C(F)(F)C(F)(F)C(F)(F)C(F)(F)C(F)(F)C(F)(F)C(F)(F)F [Perfluorooctanesulfonamide] (in DMSO)
Description: as §1

Octafluoroadipic acid = compound: O=C(O)C(F)(F)C(F)(F)C(F)(F)C(F)(F)C(=O)O [Octafluoroadipic acid] (in DMSO)
Description: as §1

[4] = compound: O=S(=O)(O)C(F)(F)C(F)(F)C(F)(F)C(F)(F)C(F)(F)C(F)(F)C(F)(F)F [Perfluoroheptanesulfonic acid] (in DMSO)
Description: as §1

[5] = compound: OCC(F)(F)OC(F)(F)C(F)(F)OC(F)(F)C(F)(F)OC(F)(F)CO [1H,1H,11H,11H-Perfluorotetraethylene glycol] (in DMSO)
Description: as §1

HDF3CGF:EGFR
level (log10) ([1]; 6700 nM): -0.0055 ± 0.005
level (log10) ([1]; 20000 nM): 0 ± 0.018
level (log10) ([2]; 1500 nM): -0.0145 ± 0.086
level (log10) ([2]; 4400 nM): -0.043 ± 0.071
level (log10) ([2]; 13000 nM): -0.039 ± 0.076
level (log10) ([2]; 40000 nM): 0.019 ± 0.014
level (log10) ([3]; 6700 nM): -0.016 ± 0.014
level (log10) ([3]; 20000 nM): -0.171 ± 0.016
level (log10) (Octafluoroadipic acid; 6700 nM): 0.0135 ± 0.0078
level (log10) (Octafluoroadipic acid; 20000 nM): 0.032 ± 0.048
level (log10) (Octafluoroadipic acid; 60000 nM): 0.032 ± 0.075
level (log10) ([4]; 1500 nM): 0.0085 ± 0.026
level (log10) ([4]; 4400 nM): -0.024 ± 0.059
level (log10) ([4]; 13000 nM): -0.033 ± 0.057
level (log10) ([4]; 40000 nM): 0.0245 ± 0.11
level (log10) ([5]; 6700 nM): -0.008 ± 0.0085
level (log10) ([5]; 20000 nM): -0.0005 ± 0.025
level (log10) ([5]; 60000 nM): 0.013 ± 0.021

KF3CT:TIMP-2
level (log10) ([1]; 6700 nM): -0.004 ± 0.028
level (log10) ([1]; 20000 nM): 0.0035 ± 0.011
level (log10) ([2]; 1500 nM): -0.0095 ± 0.025
level (log10) ([2]; 4400 nM): -0.0005 ± 0.021
level (log10) ([2]; 13000 nM): -0.0025 ± 0.005
level (log10) ([2]; 40000 nM): 0.0155 ± 0.069
level (log10) ([3]; 6700 nM): -0.0275 ± 0.012
level (log10) ([3]; 20000 nM): -0.06 ± 0.021
level (log10) (Octafluoroadipic acid; 6700 nM): -0.001 ± 0.025
level (log10) (Octafluoroadipic acid; 20000 nM): -0.0015 ± 0.005
level (log10) (Octafluoroadipic acid; 60000 nM): 0.0105 ± 0.0092
level (log10) ([4]; 1500 nM): -0.0225 ± 0.013
level (log10) ([4]; 4400 nM): -0.0035 ± 0.03
level (log10) ([4]; 13000 nM): -0.0195 ± 0.016
level (log10) ([4]; 40000 nM): 0.0105 ± 0.0021
level (log10) ([5]; 6700 nM): -0.008 ± 0.017
level (log10) ([5]; 20000 nM): 0.023 ± 0.0085
level (log10) ([5]; 60000 nM): 0.0295 ± 0.0092

MyoF:alpha-SM Actin
level (log10) ([1]; 6700 nM): -0.0045 ± 0.0064
level (log10) ([1]; 20000 nM): -0.018 ± 0.018
level (log10) ([2]; 1500 nM): 0.073 ± 0.051
level (log10) ([2]; 4400 nM): 0.084 ± 0.055
level (log10) ([2]; 13000 nM): 0.0695 ± 0.057
level (log10) ([2]; 40000 nM): 0.0745 ± 0.063
level (log10) ([3]; 6700 nM): -0.0355 ± 0.037
level (log10) ([3]; 20000 nM): -0.63 ± 0.1
level (log10) (Octafluoroadipic acid; 6700 nM): 0.007 ± 0.044
level (log10) (Octafluoroadipic acid; 20000 nM): -0.0105 ± 0.052
level (log10) (Octafluoroadipic acid; 60000 nM): 0.007 ± 0.033
level (log10) ([4]; 1500 nM): 0.0025 ± 0.1
level (log10) ([4]; 4400 nM): 0.0035 ± 0.077
level (log10) ([4]; 13000 nM): -0.021 ± 0.064
level (log10) ([4]; 40000 nM): 0.0025 ± 0.069
level (log10) ([5]; 6700 nM): -0.0125 ± 0.026
level (log10) ([5]; 20000 nM): -0.057 ± 0.0042
level (log10) ([5]; 60000 nM): -0.167 ± 0.037

lMphg:CD40
level (log10) ([1]; 6700 nM): -0.006 ± 0.0014
level (log10) ([1]; 20000 nM): -0.012 ± 0.013
level (log10) ([2]; 1500 nM): -0.0185 ± 0.026
level (log10) ([2]; 4400 nM): -0.0375 ± 0.0092
level (log10) ([2]; 13000 nM): -0.038 ± 0.013
level (log10) ([2]; 40000 nM): -0.103 ± 0.04
level (log10) ([3]; 6700 nM): -0.0365 ± 0.016
level (log10) ([3]; 20000 nM): -0.0925 ± 0.0092
level (log10) (Octafluoroadipic acid; 6700 nM): -0.0065 ± 0.0021
level (log10) (Octafluoroadipic acid; 20000 nM): -0.0015 ± 0.0021
level (log10) (Octafluoroadipic acid; 60000 nM): -0.025 ± 0.048
level (log10) ([4]; 1500 nM): -0.034 ± 0.021
level (log10) ([4]; 4400 nM): -0.007 ± 0.034
level (log10) ([4]; 13000 nM): -0.0285 ± 0.043
level (log10) ([4]; 40000 nM): -0.0525 ± 0.028
level (log10) ([5]; 6700 nM): -0.0235 ± 0.019
level (log10) ([5]; 20000 nM): -0.0385 ± 0.013
level (log10) ([5]; 60000 nM): -0.0755 ± 0.03

KF3CT:uPA
level (log10) ([1]; 6700 nM): 0.0015 ± 0.0092
level (log10) ([1]; 20000 nM): -0.015 ± 0.0028
level (log10) ([2]; 1500 nM): 0 ± 0.011
level (log10) ([2]; 4400 nM): 0.012 ± 0.0085
level (log10) ([2]; 13000 nM): -0.0085 ± 0.00071
level (log10) ([2]; 40000 nM): -0.006 ± 0.017
level (log10) ([3]; 6700 nM): 0.0165 ± 0.0064
level (log10) ([3]; 20000 nM): -0.093 ± 0.0014
level (log10) (Octafluoroadipic acid; 6700 nM): -0.0045 ± 0.039
level (log10) (Octafluoroadipic acid; 20000 nM): -0.0065 ± 0.028
level (log10) (Octafluoroadipic acid; 60000 nM): -0.0055 ± 0.026
level (log10) ([4]; 1500 nM): 0.008
level (log10) ([4]; 4400 nM): -0.0165 ± 0.00071
level (log10) ([4]; 13000 nM): -0.0195 ± 0.005
level (log10) ([4]; 40000 nM): -0.0055 ± 0.0021
level (log10) ([5]; 6700 nM): 0.005 ± 0.0057
level (log10) ([5]; 20000 nM): 0.018 ± 0.0099
level (log10) ([5]; 60000 nM): 0.024 ± 0.031

3C:CD106/VCAM-1
level (log10) ([1]; 6700 nM): -0.0115 ± 0.035
level (log10) ([1]; 20000 nM): -0.009 ± 0.024
level (log10) ([2]; 1500 nM): 0.0035 ± 0.043
level (log10) ([2]; 4400 nM): -0.009 ± 0.016
level (log10) ([2]; 13000 nM): -0.031 ± 0.017
level (log10) ([2]; 40000 nM): -0.0265 ± 0.0064
level (log10) ([3]; 6700 nM): -0.0005 ± 0.012
level (log10) ([3]; 20000 nM): 0.003 ± 0.013
level (log10) (Octafluoroadipic acid; 6700 nM): 0.0005 ± 0.019
level (log10) (Octafluoroadipic acid; 20000 nM): -0.0015 ± 0.0092
level (log10) (Octafluoroadipic acid; 60000 nM): 0.0055 ± 0.00071
level (log10) ([4]; 1500 nM): 0.001 ± 0.0042
level (log10) ([4]; 4400 nM): -0.011 ± 0.0014
level (log10) ([4]; 13000 nM): -0.016 ± 0.0028
level (log10) ([4]; 40000 nM): -0.0185 ± 0.00071
level (log10) ([5]; 6700 nM): -0.01 ± 0.0057
level (log10) ([5]; 20000 nM): -0.015 ± 0.0071
level (log10) ([5]; 60000 nM): -0.004 ± 0.011

HDF3CGF:Collagen III
level (log10) ([1]; 6700 nM): -0.022 ± 0.035
level (log10) ([1]; 20000 nM): -0.0165 ± 0.07
level (log10) ([2]; 1500 nM): -0.0625 ± 0.12
level (log10) ([2]; 4400 nM): -0.048 ± 0.052
level (log10) ([2]; 13000 nM): -0.079 ± 0.05
level (log10) ([2]; 40000 nM): -0.0675 ± 0.056
level (log10) ([3]; 6700 nM): -0.0345 ± 0.012
level (log10) ([3]; 20000 nM): -0.449 ± 0.019
level (log10) (Octafluoroadipic acid; 6700 nM): -0.0085 ± 0.0064
level (log10) (Octafluoroadipic acid; 20000 nM): 0.0005 ± 0.018
level (log10) (Octafluoroadipic acid; 60000 nM): 0.0005 ± 0.0035
level (log10) ([4]; 1500 nM): -0.004 ± 0.018
level (log10) ([4]; 4400 nM): -0.0385 ± 0.053
level (log10) ([4]; 13000 nM): -0.052 ± 0.05
level (log10) ([4]; 40000 nM): -0.0205 ± 0.033
level (log10) ([5]; 6700 nM): -0.008 ± 0.092
level (log10) ([5]; 20000 nM): -0.087 ± 0.12
level (log10) ([5]; 60000 nM): -0.211 ± 0.12

HDF3CGF:CXCL9/MIG
level (log10) ([1]; 6700 nM): -0.0005 ± 0.005
level (log10) ([1]; 20000 nM): -0.005 ± 0.035
level (log10) ([2]; 1500 nM): 0.042 ± 0.037
level (log10) ([2]; 4400 nM): 0.067 ± 0.018
level (log10) ([2]; 13000 nM): 0.0555 ± 0.029
level (log10) ([2]; 40000 nM): 0.0435 ± 0.042
level (log10) ([3]; 6700 nM): -0.203 ± 0.011
level (log10) ([3]; 20000 nM): -0.761 ± 0.11
level (log10) (Octafluoroadipic acid; 6700 nM): 0.009 ± 0.0028
level (log10) (Octafluoroadipic acid; 20000 nM): 0.007 ± 0.018
level (log10) (Octafluoroadipic acid; 60000 nM): -0.0055 ± 0.015
level (log10) ([4]; 1500 nM): -0.0075 ± 0.019
level (log10) ([4]; 4400 nM): -0.008 ± 0.013
level (log10) ([4]; 13000 nM): -0.0275 ± 0.011
level (log10) ([4]; 40000 nM): -0.0505 ± 0.042
level (log10) ([5]; 6700 nM): -0.105 ± 0.011
level (log10) ([5]; 20000 nM): -0.283 ± 0.03
level (log10) ([5]; 60000 nM): -0.525 ± 0.14
